These results are taken from patent US7318924B2, “Antibodies against cancer” (The Austin Research Institute, priority 2001, dated 2008).

The test system of one assay is CEM/A7. The experiment in a line: Growth of leukaemia cell line CEM/A7. Format: cell-based, human. From the text:
(§1) Therefore, C4 can overcome drug resistance which is a common problem in acute leukemia.

Another assay deals with mouse thyoma E3 cells. The experiment in a line: Growth of mouse thymoma E3 cells. Format: cell-based. The note with it: read-out: Ic50 concentration.
Text: as §1

In a further assay the test system is CEM/A7R. In words: Growth of drug resistant leukaemia cell line CEM/A7R. Format: cell-based, human.
Text: Thus, this cell line is normally resistant to a variety of naturally derived chemotherapeutic agents.
as §1

Another assay concerns JNK/SAPK. The experiment in a line: JNK activation in LS174T cells. It counts as cell-based, human. The note with it: 3 hours; C3 5, 10 μg/ml; Cisplatin 25, 50 μg/ml. How it is done: (§2) P38 was not affected by C3 but was activated by Cisplatin.
The role of JNK and p38 activation in anti-Cripto-1 mediated apoptosis was investigated in colon cancer LS17T cell line using different concentration of Mabs and various times of incubation. In particular, JNK/SPAK was activated in LS174T cells following 3 hours incubation with anti-Cripto-1 Mab in a dose dependent manner (FIG. 8A). JNK activation was at the highest level after 24 hours of exposure (FIGS. 8B and 8D), and declined within 48 h, returning to basal level at 72 hours of incubation (FIG. 8D) indicating JNK activation by anti-Cripto1 antibodies is time dependent

In a further assay the test system is p38. In words: p38 activation in LS174T cells. Format: cell-based, human. The note with it: 3 hours; C3 5, 10 μg/ml; Cisplatin 25, 50 μg/ml. How it is done:
as §2
The stress related p38 pathway was also investigated in LS174T cells following anti-Cripto-1 Mab treatment. p38 activation occurred following 48 hours of Mab exposure, when the level of activated JNK declined. p38 was further activated at 72 hours when elevated JNK returned to basal level (FIG. 8D). […] The potentiation of Cisplatin cytotoxicity by anti-Cripto-1 Mabs (FIG. 1) is accompanied by an increase in JNK phosphorylation (FIG. 8A) and p38 MAPK (FIG. 8B).

≈ marks a conversion by molar mass, not a printed value.

Regarding `COc1cccc2c1C(=O)c1c(O)c3c(c(O)c1C2=O)C[C@@](O)(C(=O)CO)C[C@@H]3O[C@H]1C[C@H](N)[C@@H](O)[C@H](C)O1` [Epirubicin], the “resistance to Epirubicin compared to E3” value with CEM/A7 is recorded as “around 80 fold”; in the assay on CEM/A7R it was approximately 40 fold. The IC50 in the assay with mouse thyoma E3 cells stood at 0.02 µg/mL (≈ 0.0368 µM).
On to `N.N.[Cl][Pt][Cl]` [Cisplatin], for which the JNK activation entry in the assay on JNK/SAPK was “induced”. For the same molecule, the p38 activation entry with p38 was “activated”.
